How the values were obtained:
[1] = test system: JNK pathway activation; test: Western blotting of phospho-JNK in mock-transfected HEK-293T cells; assay type: cell-based, human; settings: 50 or 100 μM, 60 min
Method: We next set out to assess the functional effects of HNE modification of ZAK in human cells. HEK-293T cells were stably transfected with cDNAs for WT-ZAK, C22A-ZAK, or K45M-ZAK and the activation state of their MAPK signaling pathways was monitored by western blotting with anti-phosphoprotein antibodies. […] We next treated cells with H2O2 (1 mM, 30 min) to induce oxidative stress, a process that is known to activate the JNK pathway^41,42. H2O2 treatment stimulated JNK activity in both WT- and C22A-ZAK-transfected cells (but not K45M-ZAK-transfected cells), with WT-ZAK cells showing the greater level of activation (FIG. 5b,c). […] We interpret these findings to indicate the existence of both ZAK-dependent and ZAK-independent pathways for HNE modulation of JNK activation (FIG. 5d). By modifying C22 on ZAK, HNE blocks the contribution that this kinase makes to the activation of the JNK pathway. […]
Mouse and rabbit monoclonal antibodies against phospho-ERK 1/2 (Thr202/Tyr204), phosphor-SAPK/JNK (Thr183/[…]), phosphor-p38 MAPK (Thr180/[…]) and total ERK 1/2, SAPK/JNK and p38 MAPK were purchased from Cell Signaling Technology. […] Protein band intensities were quantified by ImageJ8 and ratios of phosphor-MAPK over total MAPK were computed. […]

[2] = molecular target: T1, C22A-ZAK (Homo sapiens, UniProt Q9NYL2, C22A); test: ZAK in vitro kinase activity assay (MBP substrate); assay type: biochemical; settings: 10 or 100 μM HNE; immunoprecipitated enzyme
T1 construct: Full-length cDNA encoding human ZAK-13 (BC001401); expressed in transfected cells
Source text: (§1) The gel signals for IA-labeling of WT-ZAK were blocked by pretreatment with HNE over a concentration range that closely matched the HNE-sensitivity profile observed for C22 in competitive isoTOP-ABPP experiments (FIG. 4b, compare to FIG. 3a). […] Considering further that C22 is predicted to reside adjacent to the ATP-binding loop of ZAK, we postulated that the HNE-induced loss of kinase activity might be due to blockade of ATP-binding.
(§2) The kinase activity assay protocol was adapted from Yu et al^5. Kinase assay buffers, Myeilin Basic Protein (MBP) substrate, and ATP stock solution were purchased from SignalChem. Radio-labeled [^33P]-ATP was purchased from PerkinElmer. 10 mg of soluble lysate of HEK-293T cells transfected with each of wild-type, C22A and K45M of ZAK were immunoprecipitated and then eluted with 2×300 μL FLAG-peptide buffer. […] The spotted P81 strips were air dried and then washed with 10 mL of 1% phosphoric acid for 3×10 min ZAK activity was measured by counting the radioactivity on the P81 paper in the presence of scintillation fluid in a scintillation counter after subtracting the value obtained from the corresponding no substrate control, and was normalized to that of ZAK-WT without HNE treatment. […]

[3] = molecular target: T2, WT-ZAK (Homo sapiens, UniProt Q9NYL2); test: ZAK in vitro kinase activity assay (MBP substrate); assay type: biochemical; settings: 10 or 100 μM HNE; immunoprecipitated enzyme
T2 construct: Full-length cDNA encoding human ZAK-13 (BC001401); expressed in transfected cells
Source text: as §1, §2

Q: Which “JNK activation by HNE alone, mock-transfected cells” value [1] does the source give for `CCCCCC(O)/C=C/C=O` (stereo not drawn) [4-HNE, 4-Hydroxynonenal] here?
A: Its value is “activated JNK”.

Q: What about the “ZAK catalytic activity, C22A-ZAK residual activity” value [2] of the same compound?
A: The value was “insensitive”.

Q: What about the “ZAK catalytic activity, WT-ZAK” value [3] of the same compound?
A: The value was “inhibited”.

Source: patent publication US10782295B2, “Cysteine-reactive ligand discovery in proteomes” (THE SCRIPPS RESEARCH INSTITUTE, priority 2013, dated 2020)
